The text below walks through data of ChEMBL document CHEMBL5724696, “Autophagy assay results for EUbOPEN Chemogenomics Library” (2024).

Experiment [1] relates to U2OS. In words: (§1) Here: values are normalized to the positive (DMSO; basel flux = defined as 100% suppression) and negative (250nM Torin1; mTOR inhibitor; maximal inducer of autophagy defined as 0% suppression) control compounds and represented as % of ER-phagy suppression. […] The impact of autophagy induction on cells is complex and depends on the affected target. […] Of note, treatment concentrations may be sub-optimal for specific compounds, leading to false negative annotations. The note with it: Compound Concentration 1 uM, Culturing Media DMEM, 1 % Penicillin/Streptomycin, 10% Fetal bovin serum Add-On: blasticidin, Screening Media Control DMEM, 10% Fetal bovin serum Add-On: 1 µg/ml Doxycyclin, Screening Media Samples DMEM, 10% Fetal bovin serum Add-On: 1 µg/ml Doxycyclin 250nM Torin1. Type of experiment: functional, Homo sapiens.

Experiment [2] deals with U2OS. The experiment is described as §1. The note with it: Compound Concentration 1 uM, Culturing Media DMEM, 1 % Penicillin/Streptomycin, 10% Fetal bovin serum Add-On: blasticidin, Screening Media Control DMEM, 10% Fetal bovin serum Add-On: 1 µg/ml Doxycyclin, Screening Media Samples DMEM, 10% Fetal bovin serum Add-On: 1 µg/ml Doxycyclin 250nM Torin1. The class given is functional, Homo sapiens. The source holds these as a separate data set.

As to `O=C(O)c1ccc2c3c1cccc3c(=O)n1c3ccccc3nc21`, the ER-phagy suppression is -10.0258% in experiment [1] (Timepoint 12 hours); -24.8466% in experiment [1] (Timepoint 24 hours); -33.5835% in experiment [1] (Timepoint 36 hours); -29.9152% in experiment [1] (Timepoint 54 hours); -11.121% in experiment [2] (Timepoint 12 hours); -24.1866% in experiment [2] (Timepoint 24 hours). Further, the values for the ER-phagy suppression in experiment [2] (Timepoint 36 hours) and in experiment [2] (Timepoint 60 hours) were -20.6591% and -29.8702%, respectively.

`Cc1c(NC(=O)c2ccc(C(C)(C)C)cc2)cccc1-c1cn(C)c(=O)c(Nc2ccc(C(=O)N3CCOCC3)cc2)n1`: the ER-phagy suppression in experiment [1] (Timepoint 12 hours) is -19.8949%; in experiment [1] (Timepoint 24 hours), -28.4876%; in experiment [1] (Timepoint 36 hours), -32.1203%; in experiment [1] (Timepoint 54 hours), -24.8408%; in experiment [2] (Timepoint 12 hours) it was -0.6222%; in experiment [2] (Timepoint 24 hours), -11.9993%. Further, the values for the ER-phagy suppression in experiment [2] (Timepoint 36 hours) and in experiment [2] (Timepoint 60 hours) were -14.8569% and -20.2284%, respectively.

Take `Cc1ccc(-c2ccc3c(ccc4sc5c(c43)NC[C@@H](C)NC5=O)n2)cn1`: the ER-phagy suppression in experiment [1] (Timepoint 12 hours) is -17.2516%; in experiment [1] (Timepoint 24 hours) it was -0.875%; in experiment [1] (Timepoint 36 hours), 6.096%; in experiment [1] (Timepoint 54 hours), 19.149%; in experiment [2] (Timepoint 12 hours) it was 5.336%; in experiment [2] (Timepoint 24 hours) it was 5.52%. The figures for the ER-phagy suppression in experiment [2] (Timepoint 36 hours) and in experiment [2] (Timepoint 60 hours) were 7.693% and 5.525%, respectively.

`CCOC(=O)c1c(/C(C#N)=C\N)c2ccc(Cl)c(Cl)c2n1C`: the ER-phagy suppression in experiment [1] (Timepoint 12 hours) was -23.9161%; in experiment [1] (Timepoint 24 hours), -42.4331%; in experiment [1] (Timepoint 36 hours), -44.7519%; in experiment [1] (Timepoint 54 hours) it was -41.2832%; in experiment [2] (Timepoint 12 hours), -5.524%; in experiment [2] (Timepoint 24 hours), -4.715%. For the same compound, the figures for the ER-phagy suppression in experiment [2] (Timepoint 36 hours) and in experiment [2] (Timepoint 60 hours) were 1.333% and -3.592%, respectively.

For the compound `CCc1cncnc1N1CCN(Cc2nc3cc(C(F)(F)F)ccc3[nH]2)CC1`, the ER-phagy suppression in experiment [1] (Timepoint 12 hours) is -12.878%; in experiment [1] (Timepoint 24 hours) it was -26.39%; in experiment [1] (Timepoint 36 hours), -24.8445%; in experiment [1] (Timepoint 54 hours), -23.0115%; in experiment [2] (Timepoint 12 hours) it was -3.169%; in experiment [2] (Timepoint 24 hours) it was -14.0511%. Further, the results for the ER-phagy suppression in experiment [2] (Timepoint 36 hours) and in experiment [2] (Timepoint 60 hours) were -20.9455% and -35.5971%, respectively.

As for `CCn1c(=O)c(-c2ccc(Cl)cc2Cl)cc2cnc(Nc3ccc(N4CCNCC4)c(F)c3)nc21`, the ER-phagy suppression is -49.4743% in experiment [1] (Timepoint 12 hours); -41.9787% in experiment [1] (Timepoint 24 hours); -21.5083% in experiment [1] (Timepoint 36 hours); -6.286% in experiment [1] (Timepoint 54 hours); 36.4408% in experiment [2] (Timepoint 12 hours); 60.1254% in experiment [2] (Timepoint 24 hours). Moreover, the ER-phagy suppression in experiment [2] (Timepoint 36 hours) worked out at 62.8115%; in experiment [2] (Timepoint 60 hours) it was 76.8114%.

With `CC(C)NC(=O)N1CC[C@H](NC2=Nc3cc(F)ccc3N(CC(F)F)c3ccc(Cl)cc32)C1`, the ER-phagy suppression is reported as -34.3378% in experiment [1] (Timepoint 12 hours); -42.165% in experiment [1] (Timepoint 24 hours); -48.481% in experiment [1] (Timepoint 36 hours); -44.6081% in experiment [1] (Timepoint 54 hours); -0.3952% in experiment [2] (Timepoint 12 hours); -5.126% in experiment [2] (Timepoint 24 hours). In addition, the ER-phagy suppression in experiment [2] (Timepoint 36 hours) is reported as -3.1%; in experiment [2] (Timepoint 60 hours) it was -4.344%.

With `COc1cc(Nc2ccnc3ccc(Br)cc23)cc(OC)c1OC`, the ER-phagy suppression in experiment [1] (Timepoint 12 hours) amounted to 45.26%; in experiment [1] (Timepoint 24 hours) it was 43.6651%; in experiment [1] (Timepoint 36 hours), 45.8783%; in experiment [1] (Timepoint 54 hours), 55.0501%; in experiment [2] (Timepoint 12 hours), 44.6642%; in experiment [2] (Timepoint 24 hours) it was 57.8089%. Further, the ER-phagy suppression in experiment [2] (Timepoint 36 hours) is listed as 50.5911%; in experiment [2] (Timepoint 60 hours) it was 41.5059%.

As for `CN(C)C(=O)Cn1cc(-c2ccc(-c3cncc4ccccc34)cc2)cn1`, the ER-phagy suppression in experiment [1] (Timepoint 12 hours) is listed as 5.324%; in experiment [1] (Timepoint 24 hours), 37.0971%; in experiment [1] (Timepoint 36 hours), 57.9552%; in experiment [1] (Timepoint 54 hours), 74.4134%; in experiment [2] (Timepoint 12 hours), -8.903%; in experiment [2] (Timepoint 24 hours) it was 10.8163%. For the same compound, the ER-phagy suppression in experiment [2] (Timepoint 36 hours) is reported as 25.7126%; in experiment [2] (Timepoint 60 hours), 36.3142%.

`COc1cc(N(C)c2ccnc3ccc(C(F)(F)F)cc23)cc(OC)c1OC`: the ER-phagy suppression in experiment [1] (Timepoint 12 hours) is given as 8.809%; in experiment [1] (Timepoint 24 hours), -16.6853%; in experiment [1] (Timepoint 36 hours), -22.3535%; in experiment [1] (Timepoint 54 hours) it was -19.7391%; in experiment [2] (Timepoint 12 hours) it was -0.7345%; in experiment [2] (Timepoint 24 hours) it was 0.8414%. Moreover, the ER-phagy suppression in experiment [2] (Timepoint 36 hours) is given as -10.6797%; in experiment [2] (Timepoint 60 hours) it was -10.2278%.

As for `CN1CCN(Cc2cc(NC(=O)c3ccc4c(c3)CN(c3ccccc3)CC4)cc(C(F)(F)F)c2)CC1`, the ER-phagy suppression in experiment [1] (Timepoint 12 hours) is given as 8.416%; in experiment [1] (Timepoint 24 hours), 6.996%; in experiment [1] (Timepoint 36 hours) it was 11.6775%; in experiment [1] (Timepoint 54 hours), 26.4341%; in experiment [2] (Timepoint 12 hours) it was -14.1546%; in experiment [2] (Timepoint 24 hours), -18.3974%. For the same compound, the ER-phagy suppression is recorded as -8.125% in experiment [2] (Timepoint 36 hours) and -14.9547% in experiment [2] (Timepoint 60 hours).

Turning to `Cc1cn(-c2cc(NC(=O)c3ccc4c(c3)CN(c3cncnc3)C[C@@H]4C)cc(C(F)(F)F)c2)cn1`, the ER-phagy suppression is recorded as -11.2753% in experiment [1] (Timepoint 12 hours); -32.01% in experiment [1] (Timepoint 24 hours); -29.9662% in experiment [1] (Timepoint 36 hours); -28.2988% in experiment [1] (Timepoint 54 hours); -5.176% in experiment [2] (Timepoint 12 hours); -7.191% in experiment [2] (Timepoint 24 hours). The ER-phagy suppression in experiment [2] (Timepoint 36 hours) was -10.2809%; in experiment [2] (Timepoint 60 hours) it was -23.2702%.

`CN(C)C(=O)/C(C#N)=C/c1ccc(-c2nc3cnc4[nH]ccc4c3n2C2CCCCC2)o1`: the ER-phagy suppression in experiment [1] (Timepoint 12 hours) is -7.884%; in experiment [1] (Timepoint 24 hours), -25.0962%; in experiment [1] (Timepoint 36 hours), -37.4199%; in experiment [1] (Timepoint 54 hours), -35.162%; in experiment [2] (Timepoint 12 hours) it was -17.3558%; in experiment [2] (Timepoint 24 hours), -33.4897%. Moreover, the ER-phagy suppression in experiment [2] (Timepoint 36 hours) was -33.7439%; in experiment [2] (Timepoint 60 hours), -36.9146%.

Consider `CCCCN(Cc1ccccc1)C(=O)c1ccc(S(=O)(=O)Nc2ccccc2)cc1`, for which the ER-phagy suppression in experiment [1] (Timepoint 12 hours) was -7.8361%; in experiment [1] (Timepoint 24 hours) it was -20.651%; in experiment [1] (Timepoint 36 hours), -23.4672%; in experiment [1] (Timepoint 54 hours), -25.4681%; in experiment [2] (Timepoint 12 hours), -1.971%; in experiment [2] (Timepoint 24 hours), -6.76%. For the same compound, the values for the ER-phagy suppression in experiment [2] (Timepoint 36 hours) and in experiment [2] (Timepoint 60 hours) were -4.753% and -26.4705%, respectively.

Regarding `CN(C)C(=O)/C(C#N)=C/c1ccc(-c2nc3cnc4c(ccn4C)c3n2C2CCCCC2)o1`, the ER-phagy suppression in experiment [1] (Timepoint 12 hours) is -7.575%; in experiment [1] (Timepoint 24 hours), -15.5162%; in experiment [1] (Timepoint 36 hours), -12.7474%; in experiment [1] (Timepoint 54 hours) it was -14.5878%; in experiment [2] (Timepoint 12 hours) it was -5.937%; in experiment [2] (Timepoint 24 hours), -19.1708%. In addition, the ER-phagy suppression is recorded as -21.5711% in experiment [2] (Timepoint 36 hours) and -15.3462% in experiment [2] (Timepoint 60 hours).

`CN(C)C(=O)Cn1cc(-c2ccc(-c3nnc4ccccn34)cc2)cn1`: the ER-phagy suppression in experiment [1] (Timepoint 12 hours) is reported as -13.7824%; in experiment [1] (Timepoint 24 hours), -23.4109%; in experiment [1] (Timepoint 36 hours), -24.5481%; in experiment [1] (Timepoint 54 hours), -15.5458%; in experiment [2] (Timepoint 12 hours) it was -17.2141%; in experiment [2] (Timepoint 24 hours), -21.3564%. The ER-phagy suppression in experiment [2] (Timepoint 36 hours) is -13.477%; in experiment [2] (Timepoint 60 hours), -20.2221%.

Regarding `CN(C)C(=O)N1CC[C@H](NC2=Nc3cc(F)ccc3N(CC(F)F)c3ccc(Cl)cc32)C1`, the ER-phagy suppression in experiment [1] (Timepoint 12 hours) is given as -18.0128%; in experiment [1] (Timepoint 24 hours), -30.8641%; in experiment [1] (Timepoint 36 hours) it was -36.8246%; in experiment [1] (Timepoint 54 hours), -25.6155%; in experiment [2] (Timepoint 12 hours), -14.7963%; in experiment [2] (Timepoint 24 hours) it was -22.2791%. The ER-phagy suppression in experiment [2] (Timepoint 36 hours) is on record as -19.1413%; in experiment [2] (Timepoint 60 hours) it was -31.4062%.

With `O=C1Nc2ccc(I)cc2/C1=C/c1cc(Br)c(O)c(Br)c1`, the ER-phagy suppression in experiment [1] (Timepoint 12 hours) was -35.4464%; in experiment [1] (Timepoint 24 hours), -41.788%; in experiment [1] (Timepoint 36 hours), -41.037%; in experiment [1] (Timepoint 54 hours), -30.605%; in experiment [2] (Timepoint 12 hours) it was -13.4504%; in experiment [2] (Timepoint 24 hours), -24.7924%. Also, the ER-phagy suppression in experiment [2] (Timepoint 36 hours) is -11.7006%; in experiment [2] (Timepoint 60 hours), -13.1814%.
